Where two headings read alike, the source gives them in different places.
Assays:
[1] = biological target: T1, LTB4 receptor (Homo sapiens, UniProt Q15722); assay: Binding inhibition against 3H-LTB4 on the human polymorphonuclear leukocyte (PMN); conditions: percentage of inhibition of specific 3H-LTB4 (4nM) binding to human PMN, 0° C. for 20 min
T1 construct: The reaction was started by addition of a thoroughly mixed PMN cell suspension (1.6×10^6 cells); endogenous in cells; host or cells: human polymorphonuclear leukocytes (PMN), whole-cell suspension
Procedure: Binding Inhibition Against ^3H-LTB4 on the Human Polymorphonuclear Leukocyte (PMN)
0.049 ml Hanks balanced salt solution (HBSS), 0.001 ml test compound and 0.05 ml ^3H-LTB4 (4nM) were added to polypropylene tubes and mixed. The reaction was started by addition of a thoroughly mixed PMN cell suspension (1.6×10^6 cells), followed by incubation at 0° C. for 20 min. The reaction was terminated by the addition of ice-cold HBSS (2.5 ml). PMNs were harvested by vacuum filtration through Whatman GF/C glass fiber filters on a Brandel cell harvester (BRANDEL, M-24R). The filters were then washed 2 times to remove free ^3H-LTB4 with 2.5 ml of the ice-cold PBS (−) solution. The filters were transferred to each vial, and equilibrated after adding 8 ml ACS II cocktail (Amersham). The radioactivity was measured by liquid scintillation counter (Aloka, LSC-5100).
Specific binding of ^3H-LTB4 to the LTB4 receptor was defined as total binding minus nonspecific binding. Nonspecific binding was the amount of ^3H-LTB4 binding in the presence of 1.5 μM LTB4 instead of the test compound. The inhibitory effect of test compound was calculated from the following equation.
The percentage of inhibition (%)=100−(B1/B0×100)
B1: Specific ^3H-LTB4 binding in presence of test compound
B0: Specific ^3H-LTB4 binding in absence of test compound
The compounds of the formula (IB), of the present invention have an antagonistic activity on LTB4. The results which are measured by method as hereinbefore described in Example 1(A), are shown the following Table 18.

[2] = biological target: T2, PLA2 (derived from hog pancreas) (Sus scrofa, UniProt P00592); assay: Inhibitory activity on PLA2; format: biochemical; conditions: hog pancreas PLA2, 10PY-PC substrate, fluorescence, pH7.5
T2 construct: a solution of 10 mU/ml PLA2 (derived from hog pancreas) (50 μl); from tissue; host or cells: hog pancreas
Procedure: (1) Inhibitory Activity on PLA2
A reaction solution including 50 mM tris-HCl buffer (pH7.5, 874 μl; containing 100 mM sodium chloride, 1 mM EDTA), 1M calciumchloride (6 μl), 1% bovine serum albumin (10 μl) and 2.5 mM 10PY-PC (10 μl), was prepared. To the solution were added a test compound in various concentration or water (50 μl), and a solution of 10 mU/ml PLA2 (derived from hog pancreas) (50 μl). The appearance of fluorescence was measured (Ex=345 nm, Em=396 nm). Percentage (%) of the strength of fluorescence in the presence of a test compound was calculated when the strength of that in the absence thereof was regarded as 100%, and therefrom IC50 value was calculated.
10PY-PC represents 3′-palmitoyl-2-(1-pyrenedecanoyl)-L-α-phosphatidylcholine, […]

[3] = biological target: T3, trypsin (derived from bovine pancreas) (Bos taurus, UniProt P00760); assay: Inhibitory activity on trypsin; format: biochemical
T3 construct: a solution of 80 mU/ml trypsin (derived from bovine pancreas) (50 μl); from tissue; host or cells: bovine pancreas
T3 sequence (P00760 24-246): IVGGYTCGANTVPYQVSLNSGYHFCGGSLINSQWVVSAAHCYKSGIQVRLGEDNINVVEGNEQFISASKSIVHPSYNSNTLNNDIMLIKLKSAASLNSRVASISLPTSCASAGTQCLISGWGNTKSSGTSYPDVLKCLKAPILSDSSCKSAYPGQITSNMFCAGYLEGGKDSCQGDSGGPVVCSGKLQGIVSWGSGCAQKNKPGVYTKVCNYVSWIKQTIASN
Procedure: (2) Inhibitory Activity on Trypsin
To a mixture of a 0.2 M HEPES.sodium hydroxide buffer solution (pH 8.0, 100 μl) and distilled water (640 μl), were added a test compound in various concentration or water (10 μl), and a solution of 80 mU/ml trypsin (derived from bovine pancreas) (50 μl) and then the mixture was preincubated for one minute at 30° C. To the solution thus obtained was added 2.5 mM BAPNA (200 μl) and the mixture was incubated at 30° C. The absorbance at 405 nm was measured. Percentage (%) of the absorbance in the presence of a test compound was calculated when the absorbance in the absence thereof was regarded as 100%, and therefrom IC50 value was calculated.
HEPES represents 4-2-hydroxyethyl)-1-piperazineethanesulfonic acid, and
BAPNA represents α-N-benzoyl-DL-arginine-p-nitroanilide hydrochloride.

[4] = formula (IB) compounds, Table 18
[5] = bovine pancreas trypsin, BAPNA substrate, 30° C., pH 8.0, read-out: inhibitory activity on trypsin IC50
[6] = formula (IA) compounds, Table 17

T2 sequence (P00592 23-146): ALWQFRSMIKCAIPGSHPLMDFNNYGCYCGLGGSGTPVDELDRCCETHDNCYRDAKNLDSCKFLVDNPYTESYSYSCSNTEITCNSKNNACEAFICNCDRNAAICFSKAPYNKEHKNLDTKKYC
T1 sequence (Q15722 whole entry): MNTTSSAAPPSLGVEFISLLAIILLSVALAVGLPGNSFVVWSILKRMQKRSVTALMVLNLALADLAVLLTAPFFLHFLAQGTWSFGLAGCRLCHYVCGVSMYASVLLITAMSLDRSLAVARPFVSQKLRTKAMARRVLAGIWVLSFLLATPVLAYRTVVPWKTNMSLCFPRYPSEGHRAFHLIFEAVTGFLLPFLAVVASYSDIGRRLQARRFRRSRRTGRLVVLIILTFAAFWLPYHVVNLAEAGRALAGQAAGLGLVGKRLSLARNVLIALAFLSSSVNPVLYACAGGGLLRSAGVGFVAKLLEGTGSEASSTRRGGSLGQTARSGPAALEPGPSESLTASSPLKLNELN

Structure (SMILES) | inhibition [1, 4] [%] | IC50 [3, 5] [µM] | other results
CCOC(=O)CC[C@H](NC(=O)c1ccc(/C(C)=C/C(=O)Oc2ccc(C(=N)N)cc2)cc1)C(=O)OCC [Example 2(p)] | 95.2 | 0.13 | IC50 [2]: 29 µM
C=CCN(CC(=O)OCC)C(=O)c1ccc(/C=C(\C)C(=O)Oc2ccc(C(=N)N)cc2)cc1 [Example 2(l)] | 81 | 0.12 | IC50 [2]: 94 µM
CCOC(=O)CN(Cc1ccccc1)Cc1ccc(C(=O)Oc2ccc(C(=N)N)cc2)cc1 [Compound 6] | 67.8 | 0.17 | IC50 [2]: 4.5 µM
C=CCN(CC(=O)OCC)C(=O)C(=Cc1ccc(C(=O)Oc2ccc(C(=N)N)cc2)cc1)C(=O)OCC [Example 2(s)] | 83 | 0.16 | IC50 [2]: 44 µM
N=C(N)c1ccc(OC(=O)c2ccc(Cn3ccnc3-c3ccccc3)cc2)cc1 [Example 5(a)] | 62.5 | 0.15 | 
C/C(=C\c1ccc(C(=O)Oc2ccc(C(=N)N)cc2)cc1)C(=O)N(CCC(=O)O)C1CCCCC1 [Example 2(aa)] | 94.4 |  | 
CCOC(=O)CC[C@H](NC(=O)/C=C/C=C/c1ccc(C(=O)Oc2ccc(C(=N)N)cc2)cc1)C(=O)OCC [Example 2(m)] | 89.2 | 0.17 | IC50 [2]: 18 µM
CCOC(=O)CCN(CCC(C)C)C(=O)/C(C)=C/c1ccc(C(=O)Oc2ccc(C(=N)N)cc2)cc1 [Example 2(z)] | 92.8 |  | 
C=CCN(CC(=O)Oc1ccc(C(=N)N)cc1)C(=O)/C(C)=C/c1ccc(C(=O)Oc2ccc(C(=N)N)cc2)cc1 [Example 2(v)] | 92 |  | 
C=CCN(CC(=O)OCC)C(=O)/C(C)=C/c1ccc(C(=O)Oc2ccc(C(=N)N)cc2)cc1 [Compound 1] |  |  | inhibition [1, 6]: 91.5%
C=CCN(CC(=O)OCC)C(=O)c1ccc(/C(C)=C/C(=O)Oc2ccc(C(=N)N)cc2)cc1 [Example 2(q)] | 98 | 0.16 | IC50 [2]: 34 µM
C=CCN(CC(=O)OCC)C(=O)COc1ccc(C(=O)Oc2ccc(C(=N)N)cc2)cc1 [Compound 2] | 79.7 | 0.19 | 
C/C(=C\c1ccc(C(=O)Oc2ccc(C(=N)N)cc2)cc1)C(=O)N(CC(=O)O)CC1CCNCC1 [Example 2(dd)] | 50.8 |  | 
C=CCN(CCCC(=O)O)C(=O)/C(C)=C/c1ccc(C(=O)Oc2ccc(C(=N)N)cc2)cc1 [Compound 20] |  |  | inhibition [1, 6]: 83.5%
CCOC(=O)CC[C@H](NC(=O)COc1ccc(C(=O)Oc2ccc(C(=N)N)cc2)cc1)C(=O)OCC [Example 2(j)] | 55.4 | 0.12 | 
CCOC(=O)/C=C/CC(NC(=O)/C(C)=C/c1ccc(C(=O)Oc2ccc(C(=N)N)cc2)cc1)(C(=O)OCC)C(=O)OCC [Example 2(h)] | 85.4 | 0.15 | IC50 [2]: 11 µM
CCOP(=O)(CCCc1ccccc1)Cc1ccc(C(=O)Oc2ccc(C(=N)N)cc2)cc1 (stereo not shown) [Compound 4] | 73.1 | 0.16 | IC50 [2]: 41 µM
CCOC(=O)[C@H](COC(=O)c1ccccc1)NC(=O)/C(C)=C/c1ccc(C(=O)Oc2ccc(C(=N)N)cc2)cc1 [Example 2(e)] | 94.5 | 0.34 | IC50 [2]: 8.5 µM
C=CCN(CC=C)C(=O)CN(CC=C)C(=O)/C(C)=C/c1ccc(C(=O)Oc2ccc(C(=N)N)cc2)cc1 [Example 2(x)] | 94.1 |  | 

Structure (SMILES) | inhibition [1, 4] [%] | IC50 [3, 5] [µM] | other results
CCOC(=O)c1cc2ccccc2n1Cc1ccc(C(=O)Oc2ccc(C(=N)N)cc2)cc1 [Example 5(b)] | 90.2 |  | 
N=C(N)C1=Cc2ccc(OC(=O)c3ccc(C(=O)N(CC(=O)OCc4ccccc4)c4ccccc4)cc3)cc2CC1 [Example 2(b)] | 97.9 | 0.56 | IC50 [2]: 3.8 µM
CCOC(=O)CC[C@H](NC(=O)/C=C(\C)c1ccc(C(=O)Oc2ccc(C(=N)N)cc2)cc1)C(=O)OCC [Compound 4] |  |  | inhibition [1, 6]: 63.7%
CCOC(=O)CN(CCOC)C(=O)/C(C)=C/c1ccc(C(=O)Oc2ccc(C(=N)N)cc2)cc1 [Example 2(bb)] | 87.3 |  | 
CCOC(=O)CN(C(=O)/C(C)=C/c1ccc(C(=O)Oc2ccc(C(=N)N)cc2)cc1)[C@@H](CC(C)C)C(=O)OCC [Example 2(y)] | 85.5 |  | 
C=CCN(CC(=O)NC(C(=O)OCC)C(=O)OCC)C(=O)/C(C)=C/c1ccc(C(=O)Oc2ccc(C(=N)N)cc2)cc1 [Example 2(w)] | 76.7 |  | 
COc1cc(C(=N)N)ccc1OC(=O)c1ccc(C(=O)N(CCCc2ccccc2)C(Cc2ccccc2)Cc2ccccc2)cc1 [Example 2(ff)] | 82.4 |  | 
C=CCN(CC(=O)O)C(=O)/C(C)=C/c1ccc(C(=O)Nc2ccc(C(=N)N)cc2)cc1 [Example 2(ee)] | 65.3 |  | 
CCOP(=O)(/C=C/c1ccc(C(=O)Oc2ccc(C(=N)N)cc2)cc1)OCC [Example 4(a)] | 52 |  | IC50 [3]: 0.14 µM
CCOC(=O)CN(C(=O)c1ccc(C(=O)Oc2ccc(/C=C/C(=N)N)cc2)cc1)c1ccccc1 [Example 2(d)] | 99.3 | 0.14 | IC50 [2]: 8.7 µM
C=CCN(CCCC(=O)OCC)C(=O)/C(C)=C/c1ccc(C(=O)Oc2ccc(C(=N)N)cc2)cc1 [Compound 14] |  |  | inhibition [1, 6]: 96.5%
C=CCN(CC(=O)NCCN(C)C)C(=O)/C(C)=C/c1ccc(C(=O)Oc2ccc(C(=N)N)cc2)cc1 [Example 2(t)] | 51.5 |  | 
CCOC(=O)CCN(CC(=O)OCC)C(=O)/C(C)=C/c1ccc(C(=O)Oc2ccc(C(=N)N)cc2)cc1 [Compound 18] |  |  | inhibition [1, 6]: 87%
COCCCN(C(=O)/C(C)=C/c1ccc(C(=O)Oc2ccc(C(=N)N)cc2)cc1)C(C(=O)O)C(=O)O [Compound 24] |  |  | inhibition [1, 6]: 61.2%
C/C(=C\c1ccc(C(=O)Oc2ccc(C(=N)N)cc2)cc1)C(=O)N(CC(=O)O)CC1CCCO1 (stereo not shown) [Example 2(cc)] | 76.7 |  | 
N=C(N)c1ccc(OC(=O)c2ccc(CN3CCC(c4ccccc4)CC3)cc2)cc1 [Compound 5] | 89.7 | 0.13 | 
C/C(=C\c1ccc(C(=O)Oc2ccc(C(=N)N)cc2)cc1)C(=O)N(CC(=O)O)Cc1ccccc1 [Compound 21] |  |  | inhibition [1, 6]: 90.8%
C=CCN(CC(=O)OCCN(C)C)C(=O)/C(C)=C/c1ccc(C(=O)Oc2ccc(C(=N)N)cc2)cc1 [Example 2(u)] | 67.6 |  | 

Reference: patent US6583177B2, “Leukotriene B4 antagonist compounds and method for treatment” (Ono Pharmaceutical Co., Ltd., priority 1994, dated 2003)
